# Measurements published in PubChem BioAssay (NCI).
#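 Protocol summary: plate cells (96-well), add compound at 5 concentrations, incubate 48 h, interpolate endpoints linearly. Here, GI50 denotes the concentration required for 50% inhibition of growth. At the TGI there is no net growth.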
# Tests used:
# Test in all cases: DTP human tumour cell line panel, 48 h
# CAKI-1 renal = system: CAKI-1 renal
# NCI-H23 lung = system: NCI-H23 lung
# NCI-H460 lung = system: NCI-H460 lung
# RPMI-8226 leukemia = system: RPMI-8226 leukemia
# SF-268 CNS = system: SF-268 CNS
# U251 CNS = system: U251 CNS
# HOP-92 NSCLC = system: HOP-92 NSCLC
# DU-145 prostate = system: DU-145 prostate
# HCC-2998 colon = system: HCC-2998 colon
# SNB-19 CNS = system: SNB-19 CNS
# MALME-3M melanoma = system: MALME-3M melanoma
# MOLT-4 leukemia = system: MOLT-4 leukemia
# ACHN renal = system: ACHN renal
# UO-31 renal = system: UO-31 renal
# SK-MEL-5 melanoma = system: SK-MEL-5 melanoma
# UACC-257 melanoma = system: UACC-257 melanoma
# BT-549 breast = system: BT-549 breast
# HT29 colon = system: HT29 colon
# NCI-H226 lung = system: NCI-H226 lung
# OVCAR-4 ovarian = system: OVCAR-4 ovarian
# SK-MEL-2 melanoma = system: SK-MEL-2 melanoma
# KM12 colon = system: KM12 colon
# SR leukemia = system: SR leukemia
# T-47D breast = system: T-47D breast
# SF-539 CNS = system: SF-539 CNS
# SK-OV-3 ovarian = system: SK-OV-3 ovarian
# M14 melanoma = system: M14 melanoma
# COLO 205 colon = system: COLO 205 colon
# A549 NSCLC = system: A549 NSCLC
# NCI-H522 lung = system: NCI-H522 lung
# TK-10 renal = system: TK-10 renal
# K-562 leukemia = system: K-562 leukemia
# HL-60(TB) leukemia = system: HL-60(TB) leukemia
# NCI/ADR-RES ovarian = system: NCI/ADR-RES ovarian
# OVCAR-5 ovarian = system: OVCAR-5 ovarian
# SN12C renal = system: SN12C renal
# A498 renal = system: A498 renal
# HOP-62 NSCLC = system: HOP-62 NSCLC
# SNB-75 CNS = system: SNB-75 CNS
# EKVX NSCLC = system: EKVX NSCLC
# SW-620 colon = system: SW-620 colon
# HCT-116 colon = system: HCT-116 colon
# RXF 393 renal = system: RXF 393 renal
# PC-3 prostate = system: PC-3 prostate
# SK-MEL-28 melanoma = system: SK-MEL-28 melanoma
# 786-0 renal = system: 786-0 renal
# MDA-MB-231 breast = system: MDA-MB-231 breast
# CCRF-CEM leukemia = system: CCRF-CEM leukemia
# UACC-62 melanoma = system: UACC-62 melanoma
# OVCAR-8 ovarian = system: OVCAR-8 ovarian
# MDA-MB-435 = system: MDA-MB-435
# SF-295 CNS = system: SF-295 CNS
# MCF7 breast = system: MCF7 breast
# OVCAR-3 ovarian = system: OVCAR-3 ovarian
# HCT-15 colon = system: HCT-15 colon
# HS 578T breast = system: HS 578T breast
# IGROV1 ovarian = system: IGROV1 ovarian
compound,measurement,setting,value
COc1cc(/C=C/C(=O)c2cc(OC)c(OC)c(OC)c2)ccc1OCc1ccc(F)cc1,GI50,CAKI-1 renal,4.35 µM
same,TGI,CAKI-1 renal,> 100 µM
same,GI50,NCI-H23 lung,5.29 µM
same,TGI,NCI-H23 lung,> 100 µM
same,GI50,NCI-H460 lung,4.56 µM
same,TGI,NCI-H460 lung,> 100 µM
same,GI50,RPMI-8226 leukemia,1.68 µM
same,TGI,RPMI-8226 leukemia,> 100 µM
same,GI50,SF-268 CNS,4.8 µM
same,TGI,SF-268 CNS,> 100 µM
same,GI50,U251 CNS,3.74 µM
same,TGI,U251 CNS,> 100 µM
same,GI50,HOP-92 NSCLC,2.15 µM
same,TGI,HOP-92 NSCLC,8.99 µM
same,GI50,DU-145 prostate,3.72 µM
same,TGI,DU-145 prostate,> 100 µM
same,GI50,HCC-2998 colon,2.94 µM
same,TGI,HCC-2998 colon,8.17 µM
same,GI50,SNB-19 CNS,4 µM
same,TGI,SNB-19 CNS,> 100 µM
same,GI50,MALME-3M melanoma,6 µM
same,TGI,MALME-3M melanoma,> 100 µM
same,GI50,MOLT-4 leukemia,3.14 µM
same,TGI,MOLT-4 leukemia,> 100 µM
same,GI50,ACHN renal,4.92 µM
same,TGI,ACHN renal,> 100 µM
same,GI50,UO-31 renal,3.88 µM
same,TGI,UO-31 renal,> 100 µM
same,GI50,SK-MEL-5 melanoma,3.41 µM
same,TGI,SK-MEL-5 melanoma,26.3 µM
same,GI50,UACC-257 melanoma,3.82 µM
same,TGI,UACC-257 melanoma,> 100 µM
same,GI50,BT-549 breast,3.36 µM
same,TGI,BT-549 breast,15.5 µM
same,GI50,HT29 colon,3.43 µM
same,TGI,HT29 colon,> 100 µM
same,GI50,NCI-H226 lung,3.48 µM
same,TGI,NCI-H226 lung,> 100 µM
same,GI50,OVCAR-4 ovarian,3.62 µM
same,TGI,OVCAR-4 ovarian,> 100 µM
same,GI50,SK-MEL-2 melanoma,8.57 µM
same,TGI,SK-MEL-2 melanoma,64.4 µM
same,GI50,KM12 colon,4.95 µM
same,TGI,KM12 colon,> 100 µM
same,GI50,SR leukemia,1.73 µM
same,TGI,SR leukemia,> 100 µM
same,GI50,T-47D breast,3.22 µM
same,TGI,T-47D breast,> 100 µM
same,GI50,SF-539 CNS,2.12 µM
same,TGI,SF-539 CNS,5.13 µM
same,GI50,SK-OV-3 ovarian,3.61 µM
same,TGI,SK-OV-3 ovarian,54.6 µM
same,GI50,M14 melanoma,5.74 µM
same,TGI,M14 melanoma,> 100 µM
same,GI50,COLO 205 colon,5.27 µM
same,TGI,COLO 205 colon,> 100 µM
same,GI50,A549 NSCLC,3.11 µM
same,TGI,A549 NSCLC,> 100 µM
same,GI50,NCI-H522 lung,2.31 µM
same,TGI,NCI-H522 lung,15.5 µM
same,GI50,TK-10 renal,16.6 µM
same,TGI,TK-10 renal,> 100 µM
same,GI50,K-562 leukemia,2.94 µM
same,TGI,K-562 leukemia,> 100 µM
same,GI50,HL-60(TB) leukemia,2.73 µM
same,TGI,HL-60(TB) leukemia,> 100 µM
same,GI50,NCI/ADR-RES ovarian,4.2 µM
same,TGI,NCI/ADR-RES ovarian,> 100 µM
same,GI50,OVCAR-5 ovarian,3.9 µM
same,TGI,OVCAR-5 ovarian,> 100 µM
same,GI50,SN12C renal,2.73 µM
same,TGI,SN12C renal,15.4 µM
same,GI50,A498 renal,48 µM
same,TGI,A498 renal,> 100 µM
same,GI50,HOP-62 NSCLC,3.64 µM
same,TGI,HOP-62 NSCLC,37.6 µM
same,GI50,SNB-75 CNS,2.06 µM
same,TGI,SNB-75 CNS,7.48 µM
same,GI50,EKVX NSCLC,18.4 µM
same,TGI,EKVX NSCLC,> 100 µM
same,GI50,SW-620 colon,4.31 µM
same,TGI,SW-620 colon,> 100 µM
same,GI50,HCT-116 colon,2.85 µM
same,TGI,HCT-116 colon,> 100 µM
same,GI50,RXF 393 renal,3.4 µM
same,TGI,RXF 393 renal,49.8 µM
same,GI50,PC-3 prostate,3.67 µM
same,TGI,PC-3 prostate,> 100 µM
same,GI50,SK-MEL-28 melanoma,6.52 µM
same,TGI,SK-MEL-28 melanoma,> 100 µM
same,GI50,786-0 renal,7.22 µM
same,TGI,786-0 renal,> 100 µM
same,GI50,MDA-MB-231 breast,2.96 µM
same,TGI,MDA-MB-231 breast,24.6 µM
same,GI50,CCRF-CEM leukemia,3.13 µM
same,TGI,CCRF-CEM leukemia,> 100 µM
same,GI50,UACC-62 melanoma,3.15 µM
same,TGI,UACC-62 melanoma,52.3 µM
same,GI50,OVCAR-8 ovarian,2.88 µM
same,TGI,OVCAR-8 ovarian,16.6 µM
same,GI50,MDA-MB-435,3.6 µM
same,TGI,MDA-MB-435,> 100 µM
same,GI50,SF-295 CNS,3.65 µM
same,TGI,SF-295 CNS,> 100 µM
same,GI50,MCF7 breast,2.45 µM
same,TGI,MCF7 breast,> 100 µM
same,GI50,OVCAR-3 ovarian,3.84 µM
same,TGI,OVCAR-3 ovarian,> 100 µM
same,GI50,HCT-15 colon,2.66 µM
same,TGI,HCT-15 colon,> 100 µM
same,GI50,HS 578T breast,6.03 µM
same,TGI,HS 578T breast,84.2 µM
same,GI50,IGROV1 ovarian,3.38 µM
same,TGI,IGROV1 ovarian,> 100 µM
